Source: patent publication US11214803B2, “Modulators of YAP1 expression” (Ionis Pharmaceuticals, Inc., priority 2019, dated 2022)
Strand notation (5' to 3'): a small letter for the sugar, then the base; units joined by * are phosphorothioate-linked, units joined directly phosphodiester-linked; [ ] holds rarer units or linkages, { } end groups; capitals alone tell only the bases. e = 2'-O-(2-methoxyethyl) (MOE); k = constrained ethyl (cEt); [5mC] = 5-methylcytosine; d = 2'-deoxy (DNA); m = 2'-O-methyl

tested on: Yap1 mRNA; experiment: Antisense inhibition of human Yap1 in SNU-449 cells by modified oligonucleotides, single dose (Example 5, RTS36584); assay type: cell-based; conditions: Table 39; SNU-449 cells, 10,000 cells per well, free uptake, 2,000 nM oligonucleotide, approx. 48 hours; RTS36584; normalized to RIBOGREEN; Yap1 mRNA relative to untreated control
Description: Modified oligonucleotides with additional chemistry modifications were designed to target a Yap1 nucleic acid and were tested for their effect on Yap1 mRNA level in SNU-449 cells. The modified oligonucleotides were tested in a series of experiments that had similar culture conditions. Cultured SNU-449 cells at a density of 10,000 cells per well were treated using free uptake with 2,000 nM of modified oligonucleotide. After a treatment period of approximately 48 hours, RNA was isolated from the cells and Yap1 mRNA levels were measured by quantitative real-time RTPCR. Human primer probe set RTS36584 was used to measure mRNA levels. Yap1 mRNA levels were normalized to total RNA content, as measured by RIBOGREEN®. Results are presented in the tables below as percent control of the amount of Yap1 mRNA relative to untreated control cells (% UTC). The modified oligonucleotides with percent control values marked with an asterisk (*) target the amplicon region of the primer probe set. Additional assays may be used to measure the potency and efficacy of the modified oligonucleotides targeting the amplicon region.
Several different chemistry modifications were tested, which are specified in the Chemistry Notation column of the tables below, wherein the notation “d” refers to a 2′-deoxyribose sugar, the notation “s” refers to a phosphorothioate (P═S) internucleoside linkage, the notation “k” refers to a cEt modified sugar, the notation “y” refers to a 2′-O-methyl ribose sugar, the notation “e” refers to a MOE modified sugar, and the notation “^mC” refers to a 5-methylcytosine.
“Start site” indicates the 5′-most nucleoside to which the gapmer is targeted in the human gene sequence. “Stop site” indicates the 3′-most nucleoside to which the gapmer is targeted human gene sequence. […] Activity of the modified oligonucleotide may be defined in a different experiment.

Point of comparison: “1198431 (kA*dA*dT*dA*dT*dT*dG*d[5mC]*dA*dA*dT*k[5mC]*eT*kG*eT*k[5mC]; antisense) [Compound 1198431]”, “YAP1 (% UTC)” value 35 % UTC. Against it:
- 1198437 (kT*dT*dT*dA*dT*dG*dT*dA*dA*dT*dA*kT*eT*kG*e[5mC]*kA; antisense) [Compound 1198437] — higher, 63 % UTC
- 1198387 (kT*d[5mC]*dT*dA*dT*dA*dT*dT*dA*dG*dA*kG*eT*kA*eT*kG; antisense) [Compound 1198387] — higher, 84 % UTC

same assay, conditions: Table 41; SNU-449 cells, 10,000 cells per well, free uptake, 2,000 nM modified oligonucleotide, approximately 48 hours; RTS36584; normalized to RIBOGREEN; Yap1 mRNA relative to untreated control cells

Point of comparison: “1198786 (antisense kT*eG*kT*dA*dT*dG*dT*d[5mC]*dA*dG*dA*dA*eG*eA*kG*kT) [Compound 1198786]”, “YAP1 (% UTC)” value 16 % UTC. Against it:
- 1198691 (antisense kG*kT*dA*dA*dT*dA*dT*dT*dG*d[5mC]*dA*dA*kT*e[5mC]*kT*eG) [Compound 1198691] — higher, 38 % UTC
- 1198659 (antisense kT*kT*dA*dA*dG*d[5mC]*dA*d[5mC]*dT*dT*dT*dT*kA*e[5mC]*kA*eT) [Compound 1198659] — higher, 58 % UTC
- 1198666 (antisense kG*kT*dG*d[5mC]*dT*dT*dT*dG*dG*dA*dA*dG*kA*eT*k[5mC]*eT) [Compound 1198666] — higher, 44 % UTC
- 1198671 (antisense kT*kT*dT*dA*dG*dG*dA*dT*dG*d[5mC]*dA*dT*kG*eG*kT*eT) [Compound 1198671] — higher, 26 % UTC
- 1198771 (kT*e[5mC]*kT*dT*dA*dT*dA*dT*dG*dG*dT*dT*eT*eT*kG*kT; antisense) [Compound 1198771] — higher, 85 % UTC
- 1198661 (antisense kT*kT*dG*dG*dA*dA*dG*dA*dT*d[5mC]*dT*dG*kA*eA*kA*e[5mC]) [Compound 1198661] — higher, 111 % UTC

same assay, conditions: Table 42 (separate experiment); SNU-449 cells, 10,000 cells per well, free uptake, 2,000 nM modified oligonucleotide, approximately 48 hours; RTS36584; normalized to RIBOGREEN; Yap1 mRNA relative to untreated control cells

Point of comparison: “1198238 (kA*kT*dA*dG*dT*dG*d[5mC]*dT*dT*dT*dG*eG*eA*eA*kG*kA) [Compound 1198238]”, “YAP1 (% UTC)” value 88 % UTC. Against it:
- 1198221 (kT*kT*dA*d[5mC]*dA*dT*dT*dA*dG*dG*dA*eA*e[5mC]*eA*kA*kG) [Compound 1198221] — higher, 95 % UTC
- 1198710 (kA*k[5mC]*dT*dA*dA*dG*dT*dA*dA*dG*dG*dT*kT*eT*k[5mC]*e[5mC]; antisense) [Compound 1198710] — lower, 51 % UTC

same assay, conditions: Table 43 experiment; SNU-449 cells, 10,000 cells per well, free uptake, 2,000 nM, approximately 48 hours; RTS36584; Yap1 mRNA normalized to RIBOGREEN, relative to untreated control cells

Point of comparison: “1198255 (k[5mC]*kA*dA*d[5mC]*dT*d[5mC]*dT*dT*dA*dT*dA*eT*eG*eG*kT*kT; antisense) [Compound 1198255]”, “YAP1 (% UTC)” value 84 % UTC. Against it:
- 1198219 (kG*kA*dG*dG*dT*dA*dT*dA*dA*d[5mC]*dT*eG*eG*eG*k[5mC]*kA; antisense) [Compound 1198219] — lower, 22 % UTC
- 1198250 (k[5mC]*kT*dT*dA*dT*dA*dT*dG*dG*dT*dT*eT*eT*eG*kT*kG; antisense) [Compound 1198250] — lower, 50 % UTC

same assay, conditions: Table 44 experiment; SNU-449 cells, 10,000 cells per well, free uptake, 2,000 nM, approximately 48 hours; RTS36584; Yap1 mRNA normalized to RIBOGREEN, relative to untreated control cells

Point of comparison: “1198903 (kA*kT*dT*dA*dG*dA*dG*dT*dA*dT*dG*kT*dG*kG*d[5mC]*kA; antisense) [Compound 1198903]”, “YAP1 (% UTC)” value 24 % UTC. Against it:
- 1198474 (antisense kT*kA*dT*dA*dA*d[5mC]*dT*dG*dG*dG*d[5mC]*eA*kA*eA*kT*eT) [Compound 1198474] — higher, 68 % UTC
- 1198535 (kA*kA*dG*dT*dA*dA*dG*dG*dT*dT*dT*e[5mC]*k[5mC]*e[5mC]*kA*eG; antisense) [Compound 1198535] — higher, 35 % UTC

same assay, conditions: Table 45; Yap1 mRNA as percent of untreated control, SNU-449 cells, single dose

With “1198917 (k[5mC]*kA*d[5mC]*dT*dT*dT*dT*dA*d[5mC]*dA*dT*kT*dA*kG*dG*kA; antisense) [Compound 1198917]” the “YAP1 (% UTC)” value was 21 % UTC.

same assay, conditions: Table 46; Yap1 mRNA as percent of untreated control, SNU-449 cells, single dose

Point of comparison: “1198868 (kT*kG*dT*dA*dA*dT*dA*dT*dT*dG*d[5mC]*kA*eA*kT*e[5mC]*kT; antisense) [Compound 1198868]”, “YAP1 (% UT)” value 49 % UT. Against it:
- 1198856 (k[5mC]*kT*dT*dA*dT*dA*dT*dG*dG*dT*dT*kT*eT*kG*eT*kG; antisense) [Compound 1198856] — lower, 20 % UT
- 1198854 (kA*kT*dA*dT*dG*dG*dT*dT*dT*dT*dG*kT*eG*kT*eG*kT; antisense) [Compound 1198854] — higher, 56 % UT

same assay, conditions: Table 48; Yap1 mRNA level relative to untreated control; modified oligonucleotides targeting SEQ ID NO.: 1 and 2

Point of comparison: “1076439 (k[5mC]*kT*kT*dA*dT*dA*dT*dG*dG*dT*dT*dT*dT*kG*kT*kG) [Compound 1076439]”, “YAP1 (% UT)” value 31 % UT. Against it:
- 1197219 (antisense kA*kA*k[5mC]*dT*dT*dT*dA*dA*dA*dG*dT*dG*dT*kA*kT*kG) [Compound 1197219] — higher, 71 % UT
- 1198333 (kA*kT*kT*d[5mC]*dA*dG*dA*dT*dT*dT*dA*dG*kG*eA*kT*eG; antisense) [Compound 1198333] — higher, 77 % UT
- 1198331 (k[5mC]*kA*kG*dA*dT*dT*dT*dA*dG*dG*dA*dT*kG*e[5mC]*kA*eT; antisense) [Compound 1198331] — lower, 26 % UT

same assay, conditions: Table 49; Yap1 mRNA level relative to untreated control; modified oligonucleotides targeting SEQ ID NO.: 1 and 2

Point of comparison: “1198552 (antisense kA*kG*kA*dG*dT*dA*dT*dG*dT*dG*dG*d[5mC]*kA*kA*kT*eA) [Compound 1198552]”, “YAP1 (% UT)” value 17 % UT. Against it:
- 1198574 (antisense kG*kG*kA*dA*dG*dA*dT*d[5mC]*dT*dG*dA*dA*kA*k[5mC]*kT*e[5mC]) [Compound 1198574] — higher, 37 % UT
- 1198542 (antisense kT*kG*kT*d[5mC]*dT*d[5mC]*dA*dT*dG*d[5mC]*d[5mC]*dT*kT*kA*kT*eA) [Compound 1198542] — higher, 23 % UT
- 1198303 (kG*kG*kT*dA*dT*dA*dA*d[5mC]*dT*dG*dG*dG*k[5mC]*eA*kA*eA; antisense) [Compound 1198303] — higher, 27 % UT

same assay, conditions: Table 50; Yap1 mRNA remaining as percent of untreated control (UT), SNU-449 cells, single dose

Point of comparison: “1198590 (antisense kT*k[5mC]*kA*dG*dA*dT*dT*dT*dA*dG*dG*dA*kT*kG*k[5mC]*eA) [Compound 1198590]”, “YAP1 (% UT)” value 46 % UT. Against it:
- 1198598 (antisense kA*kA*k[5mC]*dT*d[5mC]*dT*dT*dA*dT*dA*dT*dG*kG*kT*kT*eT) [Compound 1198598] — higher, 76 % UT
- 1095453 (antisense kT*kG*kA*dG*dG*dT*dA*dT*dA*dA*d[5mC]*dT*kG*kG*kG*e[5mC]) [Compound 1095453] — lower, 32 % UT
- 1198562 (antisense kA*kG*kG*dT*dA*dT*dA*dA*d[5mC]*dT*dG*dG*kG*k[5mC]*kA*eA) [Compound 1198562] — lower, 30 % UT
- 1197285 (kA*kG*kA*dG*mU*dA*dT*dG*dT*dG*dG*d[5mC]*dA*kA*kT*kA; antisense) [Compound 1197285] — lower, 28 % UT

same assay, conditions: Table 51; Yap1 mRNA remaining as percent of untreated control (UT), SNU-449 cells, single dose

Point of comparison: “1197267 (kA*kT*kG*dT*mA*dA*dT*dA*dT*dT*dG*d[5mC]*dA*kA*kT*k[5mC]) [Compound 1197267]”, “YAP1 (% UT)” value 62 % UT. Against it:
- 1197302 (k[5mC]*kA*kG*dA*mU*dT*dT*dA*dG*dG*dA*dT*dG*k[5mC]*kA*kT; antisense) [Compound 1197302] — lower, 54 % UT
- 1197295 (G_{ks}^{m}C_{ks}T_{ks}T_{ds}U_{ys}G_{ds}G_{ds}A_{ds}A_{ds}G_{ds}A_{ds}T_{ds}C_{ds}T_{ks}G_{ks}A_{k}; as printed in the source, key not given here) [Compound 1197295] — lower, 24 % UT

same assay, conditions: Table 52; Yap1 mRNA, modified oligonucleotides targeting SEQ ID NO: 1 and 2

Point of comparison: “1200808 (kA*k[5mC]*kT*dG*dA*mG*dG*dT*dA*dT*dA*dA*d[5mC]*kT*kG*kG; antisense) [Compound 1200808]”, “YAP1 (% UT)” value 45 % UT. Against it:
- 1200810 (kA*kA*k[5mC]*dA*d[5mC]*mU*dG*dA*dG*dG*dT*dA*dT*kA*kA*k[5mC]; antisense) [Compound 1200810] — higher, 94 % UT

same assay, conditions: Yap1 mRNA, percent of untreated control; modified oligonucleotides targeting SEQ ID NO: 1 and 2; Table 47

Point of comparison: “1198872 (kT*kG*dT*dA*dT*dG*dT*d[5mC]*dA*dG*dA*kA*eG*kA*eG*kT; antisense) [Compound 1198872]”, “YAP1 (% UT)” value 8 % UT. Against it:
- 1197185 (antisense kA*kA*kG*d[5mC]*dA*d[5mC]*dT*dT*dT*dT*dA*d[5mC]*dA*kT*kT*kA) [Compound 1197185] — higher, 55 % UT
- 1197193 (antisense AGGATGCATGGTTTTT; chemistry not fully specified) [Compound 1197193] — higher, 15 % UT
